Values of other authors in patent US8236927B2, “Stabilizer molecule-depleted albumin solution” (Albutec GmbH, priority 2005, dated 2012).

Molecular target: T1, binding site II (diazepam binding site) of the albumin (Homo sapiens, UniProt P02768)
T1 construct: commercial albumin, stabilized with 5.2 mmole of octanoate and 5.2 mmol of N-acetyl tryptophanate per mmol albumin; purchased
Details: N-acetyl tryptophan added stepwise up to a molar ratio of 1:1; reduced from 100%

T1 sequence (P02768 25-609): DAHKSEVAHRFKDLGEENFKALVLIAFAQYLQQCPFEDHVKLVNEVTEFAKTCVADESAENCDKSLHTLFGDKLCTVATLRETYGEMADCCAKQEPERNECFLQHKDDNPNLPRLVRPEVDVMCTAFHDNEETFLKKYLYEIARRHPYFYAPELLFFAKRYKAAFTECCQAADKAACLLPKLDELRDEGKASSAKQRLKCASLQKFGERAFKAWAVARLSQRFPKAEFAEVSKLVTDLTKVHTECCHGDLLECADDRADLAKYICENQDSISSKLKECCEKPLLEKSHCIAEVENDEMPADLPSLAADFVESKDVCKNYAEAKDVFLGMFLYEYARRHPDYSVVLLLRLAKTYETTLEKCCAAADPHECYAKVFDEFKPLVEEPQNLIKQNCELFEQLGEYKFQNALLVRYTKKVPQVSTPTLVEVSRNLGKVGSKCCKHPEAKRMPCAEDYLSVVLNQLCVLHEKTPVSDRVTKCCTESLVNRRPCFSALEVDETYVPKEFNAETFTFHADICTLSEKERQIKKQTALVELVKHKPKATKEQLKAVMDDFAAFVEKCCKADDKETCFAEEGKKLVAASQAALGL

CC(=O)N[C@@H](Cc1c[nH]c2ccccc12)C(=O)O [N-acetyl tryptophan]
binding capacity for dansylsarcosin of ligand-free albumin: about 60%
